{"source": "ChEMBL document CHEMBL5291721", "about": "“A preclinical secondary pharmacology resource illuminates target-adverse drug reaction associations of marketed drugs” (Nat Commun, 2023); also: assay procedure not described here", "key": {"Bile salt export pump": {"target": "Bile salt export pump (Homo sapiens, UniProt O95342)", "sequence (O95342 whole entry)": "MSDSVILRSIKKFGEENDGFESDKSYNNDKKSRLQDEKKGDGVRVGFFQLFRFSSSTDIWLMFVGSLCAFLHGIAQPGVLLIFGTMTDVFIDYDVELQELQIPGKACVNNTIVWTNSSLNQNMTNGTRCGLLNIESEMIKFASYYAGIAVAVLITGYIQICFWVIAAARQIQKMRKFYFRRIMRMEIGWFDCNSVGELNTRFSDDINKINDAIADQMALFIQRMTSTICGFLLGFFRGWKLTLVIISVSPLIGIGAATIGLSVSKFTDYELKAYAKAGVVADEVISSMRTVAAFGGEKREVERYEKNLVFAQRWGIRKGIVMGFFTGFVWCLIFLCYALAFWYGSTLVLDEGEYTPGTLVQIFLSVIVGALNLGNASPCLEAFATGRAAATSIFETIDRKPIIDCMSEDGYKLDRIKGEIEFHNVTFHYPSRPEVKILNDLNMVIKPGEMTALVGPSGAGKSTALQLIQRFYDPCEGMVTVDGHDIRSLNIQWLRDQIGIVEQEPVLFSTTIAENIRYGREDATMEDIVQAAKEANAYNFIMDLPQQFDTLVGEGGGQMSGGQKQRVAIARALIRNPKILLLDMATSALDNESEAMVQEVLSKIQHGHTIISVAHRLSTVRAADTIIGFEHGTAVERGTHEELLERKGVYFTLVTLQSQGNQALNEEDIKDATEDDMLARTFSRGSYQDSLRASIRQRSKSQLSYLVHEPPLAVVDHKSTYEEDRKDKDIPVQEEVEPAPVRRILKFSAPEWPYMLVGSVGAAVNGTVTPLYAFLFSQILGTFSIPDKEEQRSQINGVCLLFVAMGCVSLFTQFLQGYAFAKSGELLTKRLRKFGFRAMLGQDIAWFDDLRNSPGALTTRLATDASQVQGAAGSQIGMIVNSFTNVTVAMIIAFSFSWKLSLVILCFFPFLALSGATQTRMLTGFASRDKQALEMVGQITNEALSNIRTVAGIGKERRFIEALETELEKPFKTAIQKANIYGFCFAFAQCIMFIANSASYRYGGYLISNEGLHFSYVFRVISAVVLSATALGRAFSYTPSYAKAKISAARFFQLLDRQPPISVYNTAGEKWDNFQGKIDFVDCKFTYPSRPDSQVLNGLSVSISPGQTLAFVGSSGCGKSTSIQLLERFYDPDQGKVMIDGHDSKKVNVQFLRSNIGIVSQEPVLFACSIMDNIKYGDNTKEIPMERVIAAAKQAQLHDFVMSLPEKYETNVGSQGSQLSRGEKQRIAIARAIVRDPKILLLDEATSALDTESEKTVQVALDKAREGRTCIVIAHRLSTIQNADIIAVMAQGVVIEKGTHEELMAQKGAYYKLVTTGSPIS", "format": "functional"}, "[1]": {"target": "Voltage-gated inwardly rectifying potassium channel KCNH2 (Homo sapiens, UniProt Q12809)", "sequence (Q12809 whole entry)": "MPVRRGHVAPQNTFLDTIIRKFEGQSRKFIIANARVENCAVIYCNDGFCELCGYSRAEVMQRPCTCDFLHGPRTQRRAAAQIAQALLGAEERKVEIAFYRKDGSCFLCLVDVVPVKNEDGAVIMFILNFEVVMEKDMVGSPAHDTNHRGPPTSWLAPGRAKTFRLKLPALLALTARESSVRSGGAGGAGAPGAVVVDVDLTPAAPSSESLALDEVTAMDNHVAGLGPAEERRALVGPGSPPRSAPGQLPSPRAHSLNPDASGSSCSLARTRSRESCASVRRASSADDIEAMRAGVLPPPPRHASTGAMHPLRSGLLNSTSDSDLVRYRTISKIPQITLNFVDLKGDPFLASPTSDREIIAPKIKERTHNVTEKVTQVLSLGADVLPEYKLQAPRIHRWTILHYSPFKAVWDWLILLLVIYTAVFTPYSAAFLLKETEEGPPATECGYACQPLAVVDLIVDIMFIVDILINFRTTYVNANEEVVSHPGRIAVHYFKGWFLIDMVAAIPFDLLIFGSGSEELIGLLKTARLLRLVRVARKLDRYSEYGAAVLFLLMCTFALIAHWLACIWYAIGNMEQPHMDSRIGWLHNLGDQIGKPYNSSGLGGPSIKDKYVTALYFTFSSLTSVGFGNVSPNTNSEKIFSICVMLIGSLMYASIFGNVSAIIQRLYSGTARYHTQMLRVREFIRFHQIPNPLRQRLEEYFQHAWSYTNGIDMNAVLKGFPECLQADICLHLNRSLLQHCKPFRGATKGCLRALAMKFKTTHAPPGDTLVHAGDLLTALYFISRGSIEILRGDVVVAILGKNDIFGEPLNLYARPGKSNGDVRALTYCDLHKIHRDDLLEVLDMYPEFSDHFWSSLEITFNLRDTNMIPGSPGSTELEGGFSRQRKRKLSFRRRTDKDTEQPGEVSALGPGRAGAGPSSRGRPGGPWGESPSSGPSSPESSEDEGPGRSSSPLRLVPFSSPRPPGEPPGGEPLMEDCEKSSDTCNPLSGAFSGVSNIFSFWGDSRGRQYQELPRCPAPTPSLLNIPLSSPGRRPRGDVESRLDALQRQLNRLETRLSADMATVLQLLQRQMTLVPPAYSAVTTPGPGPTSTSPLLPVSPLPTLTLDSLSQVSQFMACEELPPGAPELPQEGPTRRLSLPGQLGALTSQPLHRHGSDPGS", "format": "functional", "details": "read-out: AC50"}}, "data": [{"smiles": "CC(=N)N1CC[C@H](SC2=C(C(=O)O)N3C(=O)[C@H]([C@@H](C)O)[C@H]3C2)C1", "values": [{"measurement": "AC50", "setting": "Bile salt export pump", "result": "> 300", "unit": "µM"}, {"measurement": "AC50", "setting": "[1]", "result": 15, "unit": "µM"}]}, {"smiles": "CC(/C=C1\\SC(=S)N(CC(=O)O)C1=O)=C\\c1ccccc1", "values": [{"measurement": "AC50", "setting": "Bile salt export pump", "result": 1.6, "unit": "µM"}, {"measurement": "AC50", "setting": "[1]", "result": "> 30", "unit": "µM"}]}, {"smiles": "CC1(C)S[C@@H]2[C@H](NC(=O)[C@H](N)c3ccc(O)cc3)C(=O)N2[C@H]1C(=O)O", "note": "[AMOXICILLIN]", "values": [{"measurement": "AC50", "setting": "Bile salt export pump", "result": "> 300", "unit": "µM"}]}, {"smiles": "O=C1CN2Cc3c(ccc(Cl)c3Cl)N=C2N1", "note": "[ANAGRELIDE]", "values": [{"measurement": "AC50", "setting": "Bile salt export pump", "result": "> 300", "unit": "µM"}, {"measurement": "AC50", "setting": "[1]", "result": "> 30", "unit": "µM"}]}, {"smiles": "CNCC[C@@H](Oc1ccccc1C)c1ccccc1", "note": "[ATOMOXETINE]", "values": [{"measurement": "AC50", "setting": "Bile salt export pump", "result": "> 300", "unit": "µM"}]}, {"smiles": "CCc1oc2ccccc2c1C(=O)c1cc(Br)c(O)c(Br)c1", "note": "[BENZBROMARONE]", "values": [{"measurement": "AC50", "setting": "Bile salt export pump", "result": 3, "unit": "µM"}, {"measurement": "AC50", "setting": "[1]", "result": "> 30", "unit": "µM"}]}, {"smiles": "C=C(C)[C@@H]1CCC(C)=C[C@H]1c1c(O)cc(CCCCC)cc1O", "note": "[CANNABIDIOL]", "values": [{"measurement": "AC50", "setting": "Bile salt export pump", "result": 53, "unit": "µM"}]}, {"smiles": "CO/N=C(\\C(=O)N[C@@H]1C(=O)N2C(C(=O)O)=C(COC(N)=O)CS[C@H]12)c1ccco1", "note": "[CEFUROXIME]", "values": [{"measurement": "AC50", "setting": "Bile salt export pump", "result": "> 300", "unit": "µM"}, {"measurement": "AC50", "setting": "[1]", "result": "> 30", "unit": "µM"}]}, {"smiles": "[H]/N=C(\\N/C(=N/[H])NCCCCCCNC(=N)NC(=N)Nc1ccc(Cl)cc1)Nc1ccc(Cl)cc1", "note": "[CHLORHEXIDINE]", "values": [{"measurement": "AC50", "setting": "Bile salt export pump", "result": 170, "unit": "µM"}, {"measurement": "AC50", "setting": "[1]", "result": 16.3, "unit": "µM"}]}, {"smiles": "Clc1cccc(Cl)c1N=C1NCCN1", "note": "[CLONIDINE]", "values": [{"measurement": "AC50", "setting": "Bile salt export pump", "result": "> 300", "unit": "µM"}]}, {"smiles": "COC(=O)[C@H](c1ccccc1Cl)N1CCc2sccc2C1", "note": "[CLOPIDOGREL]", "values": [{"measurement": "AC50", "setting": "Bile salt export pump", "result": 40, "unit": "µM"}, {"measurement": "AC50", "setting": "[1]", "result": 26.1, "unit": "µM"}]}, {"smiles": "CN1C[C@H](C(=O)N[C@]2(C)O[C@@]3(O)[C@@H]4CCCN4C(=O)[C@H](Cc4ccccc4)N3C2=O)C[C@@H]2c3cccc4[nH]cc(c34)C[C@H]21", "note": "[DIHYDROERGOTAMINE]", "values": [{"measurement": "AC50", "setting": "Bile salt export pump", "result": 28, "unit": "µM"}, {"measurement": "AC50", "setting": "[1]", "result": 10, "unit": "µM"}]}, {"smiles": "CNCC[C@H](Oc1cccc2ccccc12)c1cccs1", "note": "[DULOXETINE]", "values": [{"measurement": "AC50", "setting": "Bile salt export pump", "result": "> 300", "unit": "µM"}]}, {"smiles": "CC1(C)O[C@@H]2C[C@H]3[C@@H]4C[C@H](F)C5=CC(=O)C=C[C@]5(C)[C@H]4[C@@H](O)C[C@]3(C)[C@]2(C(=O)CO)O1", "note": "[FLUNISOLIDE]", "values": [{"measurement": "AC50", "setting": "Bile salt export pump", "result": 77, "unit": "µM"}, {"measurement": "AC50", "setting": "[1]", "result": "> 30", "unit": "µM"}]}, {"smiles": "Nc1nc(O)c2ncn(COC(CO)CO)c2n1", "note": "[GANCICLOVIR]", "values": [{"measurement": "AC50", "setting": "Bile salt export pump", "result": "> 300", "unit": "µM"}, {"measurement": "AC50", "setting": "[1]", "result": "> 30", "unit": "µM"}]}, {"smiles": "C[C@H]1Oc2cc(cnc2N)-c2c(nn(C)c2C#N)CN(C)C(=O)c2ccc(F)cc21", "note": "[LORLATINIB]", "values": [{"measurement": "AC50", "setting": "Bile salt export pump", "result": 120, "unit": "µM"}, {"measurement": "AC50", "setting": "[1]", "result": "> 30", "unit": "µM"}]}, {"smiles": "Cc1cnc(NC(=O)C2=C(O)c3ccccc3S(=O)(=O)N2C)s1", "note": "[MELOXICAM]", "values": [{"measurement": "AC50", "setting": "Bile salt export pump", "result": 160, "unit": "µM"}, {"measurement": "AC50", "setting": "[1]", "result": "> 30", "unit": "µM"}]}, {"smiles": "CC[C@@H](CO)NC(=O)[C@@H]1C=C2c3cccc4[nH]cc(c34)C[C@H]2N(C)C1", "note": "[METHYLERGONOVINE]", "values": [{"measurement": "AC50", "setting": "Bile salt export pump", "result": "> 300", "unit": "µM"}, {"measurement": "AC50", "setting": "[1]", "result": "> 30", "unit": "µM"}]}]}
